# Patent publication US20170050957A1, “4-AMINO-6-(HETEROCYCLIC)PICOLINATES AND 6-AMINO-2-(HETEROCYCLIC)PYRIMIDINE-4-CARBOXYLATES AND THEIR USE AS HERBICIDES” (Dow AgroSciences LLC, priority 2013, published 2017)
# Like-named read-outs stand apart in the source and are kept apart here.
# Tests used:
# [1] = tested on: Key Broadleaf Weed and Crop Species; assay: Post-emergent Test II herbicidal activity (Table 15); assay type: in vivo; conditions: post-emergence, 336 h, 14 d; for pest or weed control at 35 g/ha: 35 g ai/ha; for pest or weed control at 70 g/ha: 70 g ai/ha; for pest or weed control at 140 g/ha: 140 g ai/ha
# Outline: (§1)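 Visual injury rating (0 = none, 100% = complete kill) made 14 d after treatment, relative to untreated plants. Compounds in an acetone/DMSO/aqueous crop-oil/surfactant spray, at top rate and serial 1/2×-1/16× rates, were applied at 187 L/ha overhead to first-second true leaf plants raised 7-21 d in greenhouse.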
# [2] = tested on: Key Grass and Sedge Weeds as well as Grass Crops; assay: Post-emergent Test II herbicidal activity (Table 16); assay type: in vivo; conditions: post-emergence, 336 h, 14 d; for pest or weed control at 35 g/ha: 35 g ai/ha; for pest or weed control at 70 g/ha: 70 g ai/ha; for pest or weed control at 140 g/ha: 140 g ai/ha
# Outline: as §1
# [3] = Abutilon theophrasti, velvetleaf (Abutilon theophrasti), read-out: Visual Growth Reduction (%) 14 Days After Application, ABUTH
# [4] = Amaranthus retroflexus, redroot pigweed (Amaranthus retroflexus), read-out: Visual Growth Reduction (%) 14 Days After Application, AMARE
# [5] = Brassica napus, oilseed rape, canola (Brassica napus), read-out: Visual Growth Reduction (%) 14 Days After Application, BRSNN
# [6] = Chenopodium album, lambsquarters (Chenopodium album), read-out: Visual Growth Reduction (%) 14 Days After Application, CHEAL
# [7] = Euphorbia heterophylla, wild poinsettia (Euphorbia heterophylla), read-out: Visual Growth Reduction (%) 14 Days After Application, EPHHL
# [8] = Helianthus annuus, sunflower (Helianthus annuus), read-out: Visual Growth Reduction (%) 14 Days After Application, HELAN
# [9] = Cyperus esculentus, yellow nutsedge (Cyperus esculentus), read-out: Visual Growth Reduction (%) 14 Days After Application, CYPES
# [10] = Echinochloa crus-galli, barnyardgrass (Echinochloa crus-galli), read-out: Visual Growth Reduction (%) 14 Days After Application, ECHCG
# [11] = Oryza sativa, rice (Oryza sativa), read-out: Visual Growth Reduction (%) 14 Days After Application, ORYSA
# [12] = Setaria faberi, giant foxtail (Setaria faberi), read-out: Visual Growth Reduction (%) 14 Days After Application, SETFA
# [13] = Triticum aestivum, wheat, spring (Triticum aestivum), read-out: Visual Growth Reduction (%) 14 Days After Application, TRZAS
# [14] = Zea mays, maize, corn (Zea mays), read-out: Visual Growth Reduction (%) 14 Days After Application, ZEAMX
SMILES,"pest or weed control at 35 g/ha [1, 3] [%]","pest or weed control at 70 g/ha [1, 3] [%]","pest or weed control at 140 g/ha [1, 3] [%]","pest or weed control at 35 g/ha [1, 4] [%]","pest or weed control at 70 g/ha [1, 4] [%]","pest or weed control at 140 g/ha [1, 4] [%]","pest or weed control at 35 g/ha [1, 5] [%]","pest or weed control at 70 g/ha [1, 5] [%]","pest or weed control at 140 g/ha [1, 5] [%]","pest or weed control at 35 g/ha [1, 6] [%]","pest or weed control at 70 g/ha [1, 6] [%]","pest or weed control at 140 g/ha [1, 6] [%]","pest or weed control at 35 g/ha [1, 7] [%]","pest or weed control at 70 g/ha [1, 7] [%]","pest or weed control at 140 g/ha [1, 7] [%]","pest or weed control at 35 g/ha [1, 8] [%]","pest or weed control at 70 g/ha [1, 8] [%]","pest or weed control at 140 g/ha [1, 8] [%]",melting point [°C],"pest or weed control at 35 g/ha [2, 9] [%]",also measured
COC(=O)c1nc(-c2ccc3cc[nH]c3c2)nc(N)c1OC [Compound 1.32],0 to 29,0 to 29,0 to 29,0 to 29,30 to 44,60 to 74,30 to 44,45 to 59,60 to 74,0 to 29,0 to 29,75 to 84,0 to 29,60 to 74,85 to 94,45 to 59,60 to 74,75 to 84,190 to 191,0 to 29,"pest or weed control at 70 g/ha [2, 9]: 0 to 29%; pest or weed control at 140 g/ha [2, 9]: 0 to 29%; pest or weed control at 35 g/ha [2, 10]: 0 to 29%; pest or weed control at 70 g/ha [2, 10]: 0 to 29%; pest or weed control at 140 g/ha [2, 10]: 0 to 29%; pest or weed control at 35 g/ha [2, 11]: 0 to 29%; pest or weed control at 70 g/ha [2, 11]: 0 to 29%; pest or weed control at 140 g/ha [2, 11]: 0 to 29%; pest or weed control at 35 g/ha [2, 12]: 0 to 29%; pest or weed control at 70 g/ha [2, 12]: 0 to 29%; pest or weed control at 140 g/ha [2, 12]: 0 to 29%; pest or weed control at 35 g/ha [2, 13]: 0 to 29%; pest or weed control at 70 g/ha [2, 13]: 0 to 29%; pest or weed control at 140 g/ha [2, 13]: 0 to 29%; pest or weed control at 35 g/ha [2, 14]: 0 to 29%; pest or weed control at 70 g/ha [2, 14]: 0 to 29%; pest or weed control at 140 g/ha [2, 14]: 0 to 29%"
COc1c(N)nc(-c2ccc3cc[nH]c3c2)nc1C(=O)O [Compound 1.33],0 to 29,0 to 29,0 to 29,60 to 74,60 to 74,75 to 84,95 to 100,95 to 100,95 to 100,0 to 29,45 to 59,60 to 74,45 to 59,60 to 74,75 to 84,60 to 74,60 to 74,75 to 84,154 to 157,0 to 29,"pest or weed control at 70 g/ha [2, 9]: 0 to 29%; pest or weed control at 140 g/ha [2, 9]: 0 to 29%; pest or weed control at 35 g/ha [2, 10]: 0 to 29%; pest or weed control at 70 g/ha [2, 10]: 0 to 29%; pest or weed control at 140 g/ha [2, 10]: 0 to 29%; pest or weed control at 35 g/ha [2, 11]: 0 to 29%; pest or weed control at 70 g/ha [2, 11]: 0 to 29%; pest or weed control at 140 g/ha [2, 11]: 0 to 29%; pest or weed control at 35 g/ha [2, 12]: 0 to 29%; pest or weed control at 70 g/ha [2, 12]: 0 to 29%; pest or weed control at 140 g/ha [2, 12]: 0 to 29%; pest or weed control at 35 g/ha [2, 13]: 0 to 29%; pest or weed control at 70 g/ha [2, 13]: 0 to 29%; pest or weed control at 140 g/ha [2, 13]: 30 to 44%"
